A short description of this data set: in vitro. As to conditions: rat, gh3-tre-luc cells.

Drawing on paper PMC6792352, “Limited Chemical Structural Diversity Found to Modulate Thyroid Hormone Receptor in the Tox21 Chemical Library” (Environmental Health Perspectives, 2019), this text covers CC50 for 68 compounds.

Structures can show the parent of a compound that is named as a salt.

As for `O=Cc1cccc(Br)c1` [3-Bromobenzaldehyde], the 50% cytotoxic concentration (CC50) (as a rule, the concentration at which the toxic effect on the cells reaches its halfway point) at 24 h (AC50 (uM) modified / 1000) is more than 90 µM. The same measure, in the same setting: the same measure for `C[C@@H]1CN(c2c(F)c(F)c3c(=O)c(C(=O)O)cn(C4CC4)c3c2F)C[C@H](C)N1` [Orbifloxacin]: more than 50 µM; for `CCC(C)=NO` [2-Butanone oxime]: more than 90 µM. For `CC(C)=CC1C(C(=O)OCN2C(=O)C3=C(CCCC3)C2=O)C1(C)C` (centres unmarked) [Tetramethrin], the half-maximal cytotoxic concentration (CC50) at 24 h was more than 50 µM (AC50 (uM) modified / 1000, Tox21_110001=Tox21_112623, viability, 1 nM T3 present, 24 h) and more than 90 µM (AC50 (uM) modified / 1000, Tox21_110001=Tox21_301017, viability, 1 nM T3 present, 24 h).

`O=C(O)c1cc(I)cc(I)c1I` [2,3,5-Triiodobenzoic acid]: the 50% cytotoxic concentration (CC50) at 24 h (AC50 (uM) modified / 1000) was more than 100 µM. On the same count and under the same terms, next, `NC(=O)NNC(N)=O` [Biurea]: more than 90 µM. With `CCCCON=O` [N-Butylnitrite], the half-maximal cytotoxic concentration (CC50) at 24 h (AC50 (uM) modified / 1000, Tox21_110001=Tox21_202927, viability, 1 nM T3 present, 24 h) is more than 90 µM. `Cc1cc(=O)oc2cc(O)cc(O)c12` [5,7-Dihydroxy-4-methylcoumarin] showed a 50% cytotoxic concentration (CC50) at 24 h (AC50 (uM) modified / 1000) of more than 90 µM. Still for that read-out and setting: next, `C[C@H]1C[C@H]2[C@@H]3CCC4=CC(=O)C=C[C@]4(C)[C@H]3C(=O)C[C@]2(C)[C@@]1(O)C(=O)CO` [Meprednisone]: more than 50 µM; `CC(=O)Nc1c(I)c(C(=O)N[C@H]2C(O)O[C@H](CO)[C@@H](O)[C@@H]2O)c(I)c(N(C)C(C)=O)c1I` (some centres unmarked) [Metrizamide]: more than 20 µM; `CCCCC(CC)CNCC(CC)CCCC` (centres unmarked) [Bis-2-ethylhexylamine]: more than 90 µM.

For `C=CCC1=C(C)[C@@H](OC(=O)[C@@H]2[C@@H](C=C(C)C)C2(C)C)CC1=O` [S-Bioallethrin], for the setting “AC50 (uM) modified / 1000”, the 50% cytotoxic concentration (CC50) at 24 h amounted to 32.6 µM. On the same count and under the same terms, next, `O=C(Nc1ccc(Cl)c(Cl)c1)c1cc(Cl)cc(Cl)c1O` [3,5-Dichlorosalicyl-3,4-dichloroanilide]: 2.97 µM; `Nc1ccccn1` [2-Aminopyridine]: more than 90 µM.

As for `CC(C)c1ccc(O)cc1` [4-Isopropylphenol], where the note is “AC50 (uM) modified / 1000, Tox21_110001=Tox21_301323, viability, 1 nM T3 present, 24 h”, the CC50 at 24 h was more than 90 µM. `NNC(=S)NN` [Thiocarbazide]: the CC50 at 24 h (AC50 (uM) modified / 1000) was more than 90 µM. The same measure, in the same setting: the same measure for `COC(=O)C(Cl)C(=O)OC` [Dimethyl chloromalonate]: more than 50 µM. `CCC1(CC)C(=O)C=CNC1=O` [Pyrithyldione]: the 50% cytotoxic concentration (CC50) at 24 h (AC50 (uM) modified / 1000, Tox21_110001=Tox21_110368, viability, 1 nM T3 present, 24 h) was more than 50 µM. In turn, `CC(=O)c1ccc(Cl)c(Cl)c1Cl` [2',3',4'-Trichloroacetophenone] gave a 50% cytotoxic concentration (CC50) at 24 h (AC50 (uM) modified / 1000) of more than 90 µM.

Turning to `CCNCCO` [2-(Ethylamino)ethanol], the CC50 at 24 h (AC50 (uM) modified / 1000) was more than 90 µM. Same read-out and setting: the same measure for `CCNC(=S)NCC` [N,N'-Diethylthiourea]: more than 90 µM.

In turn, `C[C@@H]1O[C@@H](O[C@@H]2C=C3CC[C@@H]4[C@H](CC[C@]5(C)[C@@H](c6ccc(=O)oc6)CC[C@]45O)[C@@]3(C)CC2)[C@H](O)[C@H](O)[C@H]1O` [Proscillaridin] had a cytotoxic concentration (CC50) at 24 h (AC50 (uM) modified / 1000, Tox21_110001=Tox21_110442, viability, 1 nM T3 present, 24 h) of more than 20 µM. The compound `CCOP(=O)(O)N(c1ccc(SC)c(C)c1)C(C)C` [Fenamiphos] returned a CC50 at 24 h (AC50 (uM) modified / 1000, Tox21_110001=Tox21_400081, viability, 1 nM T3 present, 24 h) of more than 90 µM. As to `CCCCCCCCN(C)C` [N,N-Dimethyloctylamine], where the note is “AC50 (uM) modified / 1000”, the CC50 at 24 h is more than 90 µM. Compound `COS(=O)(=O)O` [Sodium methyl sulfate] came in with a CC50 at 24 h (AC50 (uM) modified / 1000) of more than 90 µM. Same read-out and setting: the same measure for `Nc1nc(/C(=C/CC(=O)O)C(=O)N[C@@H]2C(=O)N3C(C(=O)O)=CCS[C@H]23)cs1` [Ceftibuten]: more than 50 µM; for `CC(C)=CCO` [3-Methyl-2-buten-1-ol]: more than 90 µM; for `CC(C)CC(C)Nc1ccc(Nc2ccccc2)cc1` (centres unmarked) [N-(1,3-Dimethylbutyl)-N'-phenyl-p-phenylenediamine]: 39 µM. The compound `Clc1nc(Cl)nc(Nc2ccccc2Cl)n1` [Anilazine] displayed a CC50 at 24 h (AC50 (uM) modified / 1000) of more than 90 µM. Still for that read-out and setting: the same measure for `CCc1nc(C)c[nH]1` [2-Ethyl-4-methyl-1H-imidazole]: more than 90 µM; for `N#Cc1ccccn1` [2-Pyridinecarbonitrile]: more than 100 µM.

Where the note is “AC50 (uM) modified / 1000”, `O=C(CCN1CCC(c2ccccc2)C1)c1ccc2c(c1)OCCO2` (centres unmarked) [Proroxan] registered a 50% cytotoxic concentration (CC50) at 24 h of 38.9 µM. Still for that read-out and setting: the same measure for `O=c1oc(=O)c2cc3c(=O)oc(=O)c3cc12` [1H,3H-Benzo(1,2-c:4,5-c')difuran-1,3,5,7-tetrone]: more than 90 µM; for `O=C[C@H](O)[C@@H](O)[C@H](O)[C@H](O)CO` (racemic) [DL-Glucose]: more than 50 µM; for `Cc1ccc(C)c(O)c1` [2,5-Dimethylphenol]: more than 90 µM. Still for that read-out and setting: the same measure for `CCN(CC)C(=O)[C@]1(c2ccccc2)C[C@@H]1CN` (racemic) [Milnacipran hydrochloride]: more than 50 µM; for `CN(C)CCCCl` [Dimethylaminopropyl chloride hydrochloride]: more than 100 µM. `CC(C)(CO)[N+](=O)[O-]` [2-Methyl-2-nitro-1-propanol] displayed a CC50 at 24 h (AC50 (uM) modified / 1000) of more than 90 µM.

In turn, `CCOP(=S)(OCC)SCSc1ccc(Cl)cc1` [Carbophenothion] returned a half-maximal cytotoxic concentration (CC50) at 24 h (AC50 (uM) modified / 1000, Tox21_110001=Tox21_113359, viability, 1 nM T3 present, 24 h) of more than 50 µM and a 50% cytotoxic concentration (CC50) at 24 h (AC50 (uM) modified / 1000, Tox21_110001=Tox21_301426, viability, 1 nM T3 present, 24 h) of more than 90 µM. Consider `CN1CCN(c2c(F)cc3c(=O)c(C(=O)O)cn4c3c2SCC4)CC1` [Rufloxacin hydrochloride], for which the cytotoxic concentration (CC50) at 24 h (AC50 (uM) modified / 1000) was more than 50 µM. Same read-out and setting: next, `C=C(C)C(=O)OCCCCCC` [Hexyl methacrylate]: more than 90 µM; `CN1C(=O)N(C)C(O)C1O` (centres unmarked) [4,5-Dihydroxy-1,3-dimethylimidazolidin-2-one]: more than 90 µM. Under “AC50 (uM) modified / 1000, Tox21_110001=Tox21_112428, viability, 1 nM T3 present, 24 h”, `CN1CCCC(=C(c2cccs2)c2cccs2)C1` [Tipepidine] showed a CC50 at 24 h of more than 50 µM.

With `NNc1ccccc1` [Phenylhydrazine], the CC50 at 24 h by setting is: (AC50 (uM) modified / 1000, Tox21_110001=Tox21_201977, viability, 1 nM T3 present, 24 h) 71 µM; (AC50 (uM) modified / 1000, Tox21_110001=Tox21_303018, viability, 1 nM T3 present, 24 h) 42 µM. In the case of `O=c1oc2ccccc2c(O)c1Cc1c(O)c2ccccc2oc1=O` [Dicumarol], for the setting “AC50 (uM) modified / 1000”, the CC50 at 24 h was more than 20 µM.

As for `Clc1ccc(C(OCCN2CCCCC2)c2ccccc2)cc1` (centres unmarked) [Cloperastine hydrochloride], for the setting “AC50 (uM) modified / 1000”, the CC50 at 24 h amounted to 9.53 µM. The same measure, in the same setting: the same measure for `CCOC(=O)c1ccc(NC(=O)CN2CCCCC2)cc1` [Sulcaine]: more than 50 µM; for `CC1=CC(C)C(C=O)C(C)C1` (centres unmarked) [Isocyclocitral]: more than 90 µM; for `CCCCCCCCOc1ccc(C(=O)c2ccccc2)c(O)c1` [Octabenzone]: more than 90 µM. In the case of `CC(C)OC(=O)c1cc2c(OCC(O)CNC(C)(C)C)cccc2[nH]1` (centres unmarked) [SDZ 21009], where the note is “AC50 (uM) modified / 1000”, the CC50 at 24 h came to 36.9 µM.

`C[C@@H](CO)NC(=O)[C@@H]1C=C2c3cccc4[nH]cc(c34)C[C@H]2N(C)C1` [Ergonovine] showed a half-maximal cytotoxic concentration (CC50) at 24 h (AC50 (uM) modified / 1000, Tox21_110001=Tox21_112022, viability, 1 nM T3 present, 24 h) of more than 50 µM. As for `CCOC(=O)COC(=O)c1ccccc1C(=O)OCC` [Ethyl phthalyl ethyl glycolate], under “AC50 (uM) modified / 1000”, the half-maximal cytotoxic concentration (CC50) at 24 h is more than 90 µM. Same read-out and setting: next, `COC(=O)c1c(C)cc(O)c(C)c1O` [Methyl 2,4-dihydroxy-3,6-dimethylbenzoate]: more than 90 µM. The compound `O=C(Cc1ccccc1)OCCc1ccccc1` [2-Phenylethyl phenylacetate] had a CC50 at 24 h (AC50 (uM) modified / 1000, Tox21_110001=Tox21_300689, viability, 1 nM T3 present, 24 h) of more than 90 µM. In turn, `C=CS(=O)(=O)O` [Sodium ethenesulfonate] had a 50% cytotoxic concentration (CC50) at 24 h (AC50 (uM) modified / 1000) of more than 50 µM. The same measure, in the same setting: the same measure for `CC1(C)[C@H](C(=O)O[C@H](C#N)c2cccc(Oc3ccccc3)c2)[C@@H]1C=C(Br)Br` [Deltamethrin]: more than 100 µM. Under “AC50 (uM) modified / 1000, Tox21_110001=Tox21_302252, viability, 1 nM T3 present, 24 h”, `O=C(NCc1cccnc1)Nc1ccc([N+](=O)[O-])cc1` [Pyrinuron] displayed a CC50 at 24 h of 81.3 µM. This lies in the double-digit micromolar range. Where the note is “AC50 (uM) modified / 1000”, `COc1ccc(C2C(=O)c3ccccc3C2=O)cc1` [Anisindione] showed a CC50 at 24 h of more than 50 µM. As for `CN(C)c1ccc(N)cc1` [N,N-Dimethyl-p-phenylenediamine], half-maximal cytotoxicity (AC50 (uM) modified / 1000, Tox21_110001=Tox21_200191, viability, 1 nM T3 present, 24 h) (CC50 at 24 h) was put at 59.3 µM. Regarding `Cc1cccc2cccnc12` [8-Methylquinoline], the 50% cytotoxic concentration (CC50) at 24 h (AC50 (uM) modified / 1000) was more than 90 µM. As to `CCOC(=O)/C=C\C(=O)OCC` [Diethyl maleate], the CC50 at 24 h (AC50 (uM) modified / 1000) is more than 90 µM. The same measure, in the same setting: the same measure for `CCCCS(=O)(=O)Cl` [Butane-1-sulfonyl chloride]: more than 90 µM; for `CC(C)c1cccc(C(C)C)c1N` [2,6-Diisopropylaniline]: more than 90 µM; for `O=S(=O)(O)c1ccc(Cl)cc1` [4-Chlorobenzenesulfonic acid]: more than 90 µM. Same read-out and setting: the same measure for `C=CC(=O)OCC1CCCO1` (centres unmarked) [Tetrahydrofurfuryl acrylate]: more than 90 µM; for `NC(N)=Nc1nc(CSCCC(N)=NS(N)(=O)=O)cs1` [Famotidine]: more than 90 µM; for `CC(C)=CC(=O)C=C(C)C` [Phorone]: more than 90 µM.

`CC1=CC[C@H](CC=O)C1(C)C` [[(1R)-2,2,3-Trimethylcyclopent-3-en-1-yl]acetaldehyde]: the CC50 at 24 h (AC50 (uM) modified / 1000) was more than 90 µM.
